# Experimental data taken from patent US4518789A, “Phenyl alpha-acyloxyacetamide derivatives and their therapeutic use” (priority 1983, dated 1985).
# Experiments:
# [1] = tested on: hind limb arthritis secondary to hip dysplasia; experiment: Analgesic effects, oral, dogs with arthritis; assay type: in vivo; details: two dogs, oral approximately 8 mg per kg
# Procedure: To test whether in addition to tranquilizing effects in animals, analgesic properties of phenyl-alpha-acyloxyacetamide derivatives of the instant invention might exist we administered systemically these compounds to dogs. N-ethyl phenyl-alpha-acetoxyacetamide or N-phenethyl phenyl-alpha-acetoxyacetamide in single oral doses of approximately 8 mg per kg was given to two dogs disabled with hind limb arthritis secondary to hip dysplasia. One dog weighed 23 kg; the other weighed 28 kg.
# The disability in both animals was such that they were unable to jump up upon a test table, 45 cm L×45 cm W×45 cm H, on which had been placed a piece of food as an inducement; nor were they able to run about or romp, their movements being limited to walking with evident stiffness of gait.
# [2] = tested on: calming or quieting behaviour; experiment: Tranquilizing effect, topical administration in hairless mice; assay type: in vivo; details: 5% solution topical
# Procedure: Hairless mice, ten in each group, were used in this study. N-phenethyl phenyl-alpha-acetoxyacetamide, N-ethyl phenyl-alpha-acetoxyacetamide or other phenyl-alpha-acyloxyacetamide derivative of the instant invention was prepared as a 5% solution in acetone: water, 8:2 or ethanol:water, 8:2. A test solution was topically applied to the left dorsal skin of hairless mice. The same topical applications were repeated three times at 30 minute intervals. A vehicle alone solution containing acetone and water or ethanol and water was used as a control. For the next 8 hours and also 24 hours later all mice were carefully observed and examined for any signs or evidence of calming or quieting effects caused by the test compound.
# Normally when a mouse is picked up by the tail with thumb and forefinger the mouse struggles trying to free itself; and if the mouse is placed on a horizontal metallic grid uniformly spaced at 8 mm, the mouse nervously pulls itself across the grid, again trying to free itself from the restraining grip of the fingers.
# If during the above observation period the mouse behaved the same before and after the topical treatment when picked up by the tail and placed on the metallic grid, the test compound was determined to have no significant tranquilizing effect by topical administration.
# [3] = tested on: calming or quieting behaviour; experiment: Tranquilizing effect, subcutaneous administration in mice; assay type: in vivo, hairless mice, white hairy mice; details: 1 to 2% solution
# Procedure: Hairless mice, white hairy mice and dogs were used in these studies.
# N-phenethyl phenyl-alpha-acetoxyacetamide, N-ethyl phenyl-alpha-acetoxyacetamide or other phenyl-alpha-acyloxyacetamide derivative of the instant invention was prepared as a 1 to 2% solution or as gelatin capsules containing 75 to 300 mg per capsule of the active ingredient. Hairless mice or white hairy mice five in each group were injected subcutaneously with the test solution in a volume of 0.1 ml. The same procedure was repeated once more 3 hours later. For the next 8 hours and also at 24 hours later, all the mice were carefully observed and examined for any signs and evidences of calming or quieting effects caused by the test compound.
# Parameters and criteria used for sedative or tranquilizing effect were the same as that described in the foregoing section.
SMILES,physical incapacities [1],time after administration at which incapacities were diminished [1],tranquilizing effect [2],tranquilizing effect [3]
CC(=O)OC(C(=O)NCCc1ccccc1)c1ccccc1 (stereo not drawn) [N-phenethyl phenyl-alpha-acetoxyacetamide],diminished,Two to three,marked degrees of tranquilizing effect,marked degrees of calming effect
CCNC(=O)C(OC(C)=O)c1ccccc1 (stereo not drawn) [N-ethyl phenyl-alpha-acetoxyacetamide],diminished,Two to three,no detectable signs of sedation,no detectable signs of sedation
